Measurements as given in US11884649B2, “IRE1α inhibitors and uses thereof” (The Regents of the University of California, priority 2020, dated 2024).

Assays:
IRE1α = biological target: T1, IRE1α (Rattus norvegicus, UniProt A0A4Y1YQ52); assay: ER stress-mediated IRE1α autophosphorylation by Phos-tag SDS-PAGE in INS-1 cells (Brefeldin-A); format: cell-based; conditions: various concentrations, 200 ng/μL Brefeldin-A (BFA) for 2 hours
T1 construct: endogenous in cells; host or cells: INS-1 rat insulinoma beta cells
Method: FIG. 21. […] Immunoblots for total IRE1α (bottom) from INS-1 cells treated with various concentrations of PAIR1 or KIRA9 followed by the addition of 200 ng/μL Brefeldin-A (BFA) for 2 hours. Samples were subjected to Phos-tag SDS-PAGE and % autophosphorylated IRE1α (top) was determined from the ratio of phosphorylated IRE1α relative to total IRE1α. Values shown are mean±SEM (n=3).
Treatment Conditions for Phostag Gels
INS-1 or IRE1α-overexpressing isogenic INS-1 cells were plated onto a 24-well Poly-D-Lysine coated tissue culture plate and grown for 48 hrs. Inhibitor or DMSO were added to the media and incubated for 1 hour at 37° C. with 5% CO2 prior to addition of ER stress agents. […] Cells were lysed directly into SDS loading buffer (50 mM Tris, 100 mM DTT, 2% SDS (w/v), 10% glycerol (v/v), and 0.1% bromophenol blue (w/v), pH 6.8) and boiled for five minutes prior to gel loading.
Phostag Acrylamide Gel Procedure
A phostag acrylamide gel recipe used to resolve phosphorylation of IRE1α has been previously established and this recipe was followed verbatim for this study.^91 Resolving gels were allowed to solidify (˜1.5 hr) before adding the stacking gel and comb and allowed to solidify (˜1 hr). Gels were run using Tris-Glycine-SDS running buffer (25 mM Tris, 192 mM glycine, 0.1% SDS, pH 8.3) at 100 V for 3-3.5 hours. […]

XBP1 mRNA splicing = XBP1 mRNA splicing in INS-1 cells conditionally overexpressing IRE1α (Dox); format: cell-based, rat; conditions: 5 ng/mL Dox; 20 μM for XBP1s immunoblot
Method: RNA Isolation, Quantitative Real-Time PCR, and Primers
INS-1 or isogenic IRE1α-overexpressing INS-1 cells were plated onto Poly-D-Lysine coated tissue culture plate and grown for 48 hrs. Inhibitors or DMSO were added to the media and incubated for 1 hour at 37° C. with 5% CO2 prior to addition of ER stress agents or Dox as indicated. RNA was isolated from whole cells using either QIAGEN RNeasy Mini kits or Trizol (Invitrogen) and reverse transcribed as above to obtain total cDNA. Then, XBP-1 primers were used to amplify an XBP-1 amplicon spanning the 26 nt intron from the cDNA samples in a regular 3-step PCR. Thermal cycles were: 5 min at 95° C., 30 cycles of 30 s at 95° C., 30 s at 60° C., and 1 min at 72° C., followed by 72° C. for 15 min, and hold at 4° C. Primers used for XBP-1 mRNA splicing were as follows: sense primer XBP1.3 S (5′ […]-3′ (SEQ ID NO:2)) and antisense primer XBP1.2AS (5′-[…]-3′ (SEQ ID NO:3)). PCR fragments were then digested by PstI, resolved on 3% agarose gels, stained with EtBr and quantified by densitometry using ImageJ (NIH). For standard mRNA detection, generally […] total RNA was reverse transcribed using the QuantiTect Reverse Transcription Kit (QIAGEN). For qPCR, we used SYBR green (QIAGEN) and StepOnePlus Real-Time PCR System (Applied Biosystems). Thermal cycles were: 5 min at 95° C., 40 cycles of 15 sec at 95° C., 30 sec at 60° C. Gene expression levels were normalized to Beta Actin. Primers used for qPCR of RIDD targets were as follows: Beta Actin Fwd: 5′-[…]-3′ (SEQ ID NO:4), Beta Actin Rev: 5′-[…]-3′ (SEQ ID NO:5), Insulin 1 Fwd: 5′-GTCCTCTGGGAGCCCAAG-3′ (SEQ ID NO:6), Insulin 1 Rev: 5′-ACAGAGCCTCCACCAGG-3′ (SEQ ID NO:7), Insulin 2 Fwd: 5′-ATCCTCTGGGAGCCCCGC-3′ (SEQ ID NO:8), Insulin 2 Rev: 5′-AGAGAGCTTCCACCAAG-3′ (SEQ ID NO:9), Blos1 Fwd: 5′-[…]-3′ (SEQ ID NO:10), and Blos1 Rev: 5′-[…]-3′ (SEQ ID NO:11).
(§1) RNA was extracted using Trizol (Invitrogen), DNaseI treated, and cDNA products encompassing the intron amplified by QuantiTect Reverse Transcription Kit (Qiagen). sense Primer rXBP Forward (5′-[…]-3′ (SEQ ID NO:12)) and antisense primer rXBP Reverse (5′-[…]-3′ (SEQ ID NO:13)) were used. PCR fragments were digested by PstI, resolved on 3% agarose gels, stained with EtBr, and quantified by densitometry.
as §1, with “XBP1 splicing for FIGS. 33A-33F: RNA” for “RNA”, “(Invitrogen),” for “(Invitrogen), DNaseI treated, and”, “(Qiagen). Sense” for “(Qiagen). sense”, “rXBP splicing” for “rXBP”

[1] = test system: XBP1 mRNA splicing / RIDD; assay: XBP1 splicing and Blos1 mRNA in LPS-treated splenocytes; format: cell-based, mouse; conditions: LPS treatment

T1 sequence (A0A4Y1YQ52 21-977): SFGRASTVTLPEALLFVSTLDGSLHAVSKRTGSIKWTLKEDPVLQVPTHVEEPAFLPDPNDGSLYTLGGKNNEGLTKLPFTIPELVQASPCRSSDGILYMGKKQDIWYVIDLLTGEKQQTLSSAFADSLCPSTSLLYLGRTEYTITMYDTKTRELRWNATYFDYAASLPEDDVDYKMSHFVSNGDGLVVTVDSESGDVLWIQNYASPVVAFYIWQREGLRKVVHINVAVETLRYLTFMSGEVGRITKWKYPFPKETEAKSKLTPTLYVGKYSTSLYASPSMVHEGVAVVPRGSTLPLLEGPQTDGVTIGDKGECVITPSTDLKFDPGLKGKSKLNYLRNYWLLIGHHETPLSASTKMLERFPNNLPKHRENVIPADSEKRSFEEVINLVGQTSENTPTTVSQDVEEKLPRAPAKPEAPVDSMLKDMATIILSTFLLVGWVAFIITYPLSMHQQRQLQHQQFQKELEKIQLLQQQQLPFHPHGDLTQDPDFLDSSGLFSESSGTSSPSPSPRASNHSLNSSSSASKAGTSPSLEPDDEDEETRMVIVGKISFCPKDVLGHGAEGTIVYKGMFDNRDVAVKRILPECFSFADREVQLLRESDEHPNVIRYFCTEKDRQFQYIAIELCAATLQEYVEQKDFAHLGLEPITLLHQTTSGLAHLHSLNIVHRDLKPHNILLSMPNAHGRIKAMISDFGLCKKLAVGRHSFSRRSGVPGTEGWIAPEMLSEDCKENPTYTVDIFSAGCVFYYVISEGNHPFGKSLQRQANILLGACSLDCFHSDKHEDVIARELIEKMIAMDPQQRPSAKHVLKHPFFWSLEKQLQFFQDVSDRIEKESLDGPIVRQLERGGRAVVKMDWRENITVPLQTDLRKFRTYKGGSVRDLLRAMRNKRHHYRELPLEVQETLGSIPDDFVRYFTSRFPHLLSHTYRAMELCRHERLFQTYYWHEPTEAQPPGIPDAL

Compound	IRE1α autophosphorylation (IRE1α)	XBP1 mRNA splicing and expression of Xbp1s (XBP1 mRNA splicing)	Blos1 mRNA decay [1]	XBP1 mRNA splicing [1]
O=S(=O)(CCC(F)(F)F)Nc1ccc(Oc2ncccc2-c2ccnc(NC3CCCNC3)n2)c2ccccc12 (centres unmarked) [KIRA9, 3,3,3-trifluoro-N-(4-(3-(2-(piperidin-3-ylamino)pyrimidin-4-yl)pyridin-2-yloxy)naphthalen-1-yl)propane-1-sulfonamide]	equipotently block ER stress-mediated IRE1α autophosphorylation	more vigorously inhibited these outputs	significantly rescued	reversed
O=S(=O)(CC(F)(F)F)Nc1ccc(Oc2ncccc2-c2ccnc(N[C@H]3CCCNC3)n2)c2ccccc12 (stereo in doubt) [PAIR1, 2,2,2-trifluoro-N-(4-(3-(2-(piperidin-3-ylamino)pyrimidin-4-yl)pyridin-2-yloxy)naphthalen-1-yl)ethanesulfonamide]	equipotently block ER stress-mediated IRE1α autophosphorylation	largely preserved	significantly rescued	reversed with KIRA9, but not with PAIR1
